# Reference: ChEMBL document CHEMBL1151721, “Fagraldehyde, a secoiridoid isolated from Fagraea fragrans” (J Nat Prod, 2008)
# System: Plasmodium falciparum
# Assay: Antiplasmodial activity against chloroquine-resistant Plasmodium falciparum W2 by FACS
# Format: functional, organism-based
row,SMILES,IC50
1,CC1OC(=O)C(C=O)=C2C=COC=C21 (centres undefined) [FAGRALDEHYDE],22.4 µg/mL
2,C=C[C@@H]1C2=CCOC(=O)C2=CO[C@H]1O[C@@H]1O[C@H](CO)[C@@H](O)[C@H](O)[C@H]1O [GENTIOPICROSIDE],> 50 µg/mL
3,C=C[C@H]1[C@H](O[C@@H]2O[C@H](CO)[C@@H](O)[C@H](O)[C@H]2O)OC=C2C(=O)OCC[C@H]21 [SWEROSIDE],> 50 µg/mL
4,C=C[C@H]1[C@H](O[C@@H]2O[C@H](CO)[C@@H](O)[C@H](O)[C@H]2O)OC=C2C(=O)OCC[C@]21O [SWERTIAMARIN],> 50 µg/mL
